US10434101B2, “Heterocyclic compounds and uses thereof” (Celgene CAR LLC, priority 2010, dated 2019)
pIC50: −log10 of the molar value. Where two headings read alike, the source gives them in different places.

Assays:
[1] = test system: H1975 cells (EGFR L858R/T790M); assay: Cell proliferation (CellTiter Glo, 72 hr) in H1975 cells; assay type: cell-based, human; conditions: for GI50: Homo sapiens, read-out: H1975 GI50
Procedure: (§1) A431 human epidermoid carcinoma, H1975 human NSCLC and HCC827 human NSCLC adenocarcinoma cells were obtained from the American Type Culture Center (Manassas, Va.). A431 cells were grown in DMEM (Invitrogen, Carlsbad, Calif.) supplemented with 10% FBS (HyClone, South Logan, Utah) and 1% Penicillin-Streptomycin (P/S, Lonza, Walkersville, Md.).
(§2) Cells were plated in Growth Media supplemented with 5% FBS and 1% P/S at a density of 3,000 cells per well in 96 well tissue culture plates (Corning). […] Growth inhibition (GI50) values were determined by Graph Pad Prism.

A431 cells (WT EGFR) = assay: Cell proliferation (CellTiter Glo, 72 hr) in A431 cells; assay type: cell-based; conditions: Homo sapiens, read-out: WT EGFR GI50
Procedure: as §1, §2

EGFR-WT = EGFR-WT (Homo sapiens (Human), UniProt P00533); assay: Omnia assay, potency against EGFR (WT) active enzyme; assay type: biochemical; conditions: [EGFR-WT]=5 nM, [ATP]=15 uM, 30 min pre-incubation
Procedure: Kinase reactions were started with the addition of 45 μL of the ATP/Tyr-Sox peptide substrate mix and monitored every 71 seconds for 60 minutes at λex360/λem485 in a Synergy^4 plate reader from BioTek (Winooski, Vt.).

[2] = test system: HCC827 cells (EGFR delE746-A750); assay: Cell proliferation (CellTiter Glo, 72 hr) in HCC827 cells; assay type: cell-based, human; conditions: for GI50: Homo sapiens, read-out: HCC827 GI50
Procedure: as §1, §2

[3] = target: EGFR delE746-A750 deletion mutation (HCC827 cells) (Homo sapiens (Human), UniProt P00533, DEL746-750); assay: Phospho-EGFR signaling (immunoblotting, 1 hr) in HCC827 cells; assay type: cell-based; conditions: signaling EC50 WT (A431) / HCC827
Procedure: as §1
(§3) All primary antibodies were obtained from Cell Signaling (Danvers, Mass.) and used at 1:1000. Secondary antibodies were used at 1:10,000. Goat anti-mouse IgG IRDye 800CW antibody was obtained from LiCor Biosciences (Lincoln, Nebr.) and goat anti-rabbit IgG Alexa Fluor 680 was obtained from Invitrogen.
(§4) Cells were grown in 12-well plates (Corning, Coring, N.Y.) to 90% confluence and then incubated in low-serum (0.1% FBS) media for 16-18 hr. […] A431 cells were then stimulated with 50 ng/ml EGF (Peprotech, Rocky Hill, N.J.) for 15 min. After treatment, cell monolayers were washed with cold PBS (Invitrogen) and immediately lysed by scrapping into 60 uL cold Cell Extraction Buffer (Invitrogen) supplemented with Complete Protease inhibitors (Roche, Indianapolis, Ind.) and PhosphoSTOP (Roche) phosphatase inhibitors.
(§5) Phospho-protein signals were quantitated using Odyssey Infrared Imaging (Li-Cor Biosciences).
(§6) To assess phosphor-EGFR signaling, blots were probed with rabbit anti-Phospho-EGFR (Y1068) and mouse total anti-EGFR antibodies. Phospho-EGFR signal was normalized to total EGFR expression for each sample. […] Normalized data was fitted using a sigmoidal curve analysis program (Graph Pad Prism version 5) with variable Hill slope to determine the EC50 values.

[4] = target: EGFR double mutation L858R/T790M (H1975 cells) (Homo sapiens (Human), UniProt P00533, L858R/T790M); assay: Phospho-EGFR signaling (immunoblotting, 1 hr) in H1975 cells; assay type: cell-based; conditions: signaling EC50 WT (A431) / H1975
Procedure: as §1, §3, §4, §5, §6

| GI50 ([1]; NCI-H1975, H1975 cells, 72 hr) | GI50 (A431 cells (WT EGFR); A-431, A431 cells, 72 hr) | pIC50 (EGFR-WT) | GI50 ([2]; HCC827 cells, 72 hr) | SMILES | Ratio WT/mutant (H1975) ([1]; proliferation GI50 WT (A431) / H1975) | Ratio WT/mutant (HCC827) ([2]; proliferation GI50 WT (A431) / HCC827) | GI50 ([1]; NCI-H1975, 72 h) | Ratio WT/mutant (HCC827) [3] | GI50 (A431 cells (WT EGFR); A-431, 72 h) | Ratio WT/mutant (H1975) [4] | GI50 ([2]; HCC827, 72 h) |
| --- | --- | --- | --- | --- | --- | --- | --- | --- | --- | --- | --- |
| 500 to 1000 nM | > 1000 nM | 7.00 to 7.52 | 100 to 500 nM | C=CC(=O)Nc1cccc(Nc2nc(Nc3ccc(N4CCOCC4)cc3OC)ncc2Cl)c1 [Compound I-15, N-(3-(5-chloro-2-(2-methoxy-4-morpholinophenylamino)pyrimidin-4-ylamino)phenyl)acrylamide] | >1 | >10 | – | – | – | – | – |
| – | – | – | – | C=CC(=O)Nc1cccc(Oc2nc(Nc3ccc(N4CCN(C(=O)OC(C)(C)C)CC4)cc3OC)ncc2Cl)c1 [Compound I-46, tert-butyl 4-(4-(4-(3-acrylamidophenoxy)-5-chloropyrimidin-2-ylamino)-3-methoxyphenyl)piperazine-1-carboxylate] | – | – | 500 to 1000 nM | >50 | > 1000 nM | >10 | 100 to 500 nM |
